From patent US9376425B2, “Heterocyclic compounds as MDM2 inhibitors for the treatment of cancer” (AMGEN INC., priority 2011, dated 2016)

Target: T1, human MDM2 (GST-hMDM2 1-188), interaction with biotinylated-p53 (1-83) (Homo sapiens, UniProt Q00987)
T1 construct: Amino acid residues 1-188 of human MDM2 were expressed; made in house; host or cells: Escherichia coli
Experiment: improved HTRF assay (HTRF2 assay), inhibition of HDM2-p53 interaction
Format: binding
Conditions: 0.2 nM GST-hMDM2, 0.5 nM biotinylated-p53, 100 mM KF
In short: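 GST-hMDM2 preincubated 20 min at RT with serially diluted compound, then biotinylated p53 (1-83, E. coli) added for 60 min. Detection with SA-XLent, anti-GST cryptate and KF, equilibrated >4 h; final DMSO 2%. TR-FRET read; % inhibition calculated relative to nutlin-3.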

T1 sequence (Q00987 1-188): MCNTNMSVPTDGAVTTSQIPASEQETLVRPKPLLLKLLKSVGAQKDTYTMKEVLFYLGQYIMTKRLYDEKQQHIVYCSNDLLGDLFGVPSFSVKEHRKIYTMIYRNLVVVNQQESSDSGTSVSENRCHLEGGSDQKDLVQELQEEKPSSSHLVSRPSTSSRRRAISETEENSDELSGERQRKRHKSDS

Structure (SMILES)	IC50
CC[C@@H](CS(=O)(=O)N1CCC[C@@H]1C)N1C(=O)[C@@H](CC(=O)O)O[C@H](c2cccc(Cl)c2)[C@H]1c1ccc(Cl)cc1 (single isomer, unassigned) [Example 209, 2-((2R,5R,6R)-6-(3-chlorophenyl)-5-(4-chlorophenyl)-4-((S)-1-(((S)-2-methylpyrrolidin-1-yl)sulfonyl)butan-2-yl)-3-oxomorpholin-2-yl)acetic acid or 2-((2S,5R,6R)-6-(3-chlorophenyl)-5-(4-chlorophenyl)-4-((S)-1-(((S)-2-methylpyrrolidin-1-yl)sulfonyl)butan-2-yl)-3-oxomorpholin-2-yl)acetic acid]	7 nM
CC[C@@H](CS(=O)(=O)N1CCC[C@H]1C)N1C(=O)[C@@H](CC(=O)O)O[C@H](c2cccc(Cl)c2)[C@H]1c1ccc(Cl)cc1 (single isomer, unassigned) [Example 210, 2-((2R,5R,6R)-6-(3-chlorophenyl)-5-(4-chlorophenyl)-4-((S)-1-(((R)-2-methylpyrrolidin-1-yl)sulfonyl)butan-2-yl)-3-oxomorpholin-2-yl)acetic acid or 2-((2S,5R,6R)-6-(3-chlorophenyl)-5-(4-chlorophenyl)-4-((S)-1-(((R)-2-methylpyrrolidin-1-yl)sulfonyl)butan-2-yl)-3-oxomorpholin-2-yl)acetic acid]	1 nM
CC[C@@H](CS(=O)(=O)N1CCC[C@H]1C)N1C(=O)[C@@H](CC(=O)O)O[C@H](c2cccc(Cl)c2)[C@H]1c1ccc(Cl)cc1 (single isomer, unassigned) [Example 211, 2-((2R,5R,6R)-6-(3-chlorophenyl)-5-(4-chlorophenyl)-4-((S)-1-(((R)-2-methylpyrrolidin-1-yl)sulfonyl)butan-2-yl)-3-oxomorpholin-2-yl)acetic acid or 2-((2S,5R,6R)-6-(3-chlorophenyl)-5-(4-chlorophenyl)-4-((S)-1-(((R)-2-methylpyrrolidin-1-yl)sulfonyl)butan-2-yl)-3-oxomorpholin-2-yl)acetic acid]	4 nM
CC[C@@H](CS(=O)(=O)C1CC1)N1C(=O)[C@@H](CC(=O)O)O[C@H](c2cccc(Cl)c2)[C@H]1c1ccc(Cl)cc1 (single isomer, unassigned) [Example 212, 2-((2R,5R,6R)-6-(3-chlorophenyl)-5-(4-chlorophenyl)-4-((S)-1-(cyclopropylsulfonyl)butan-2-yl)-3-oxomorpholin-2-yl)acetic acid or 2-((2S,5R,6R)-6-(3-chlorophenyl)-5-(4-chlorophenyl)-4-((S)-1-(cyclopropylsulfonyl)butan-2-yl)-3-oxomorpholin-2-yl)acetic acid]	2 nM
CC[C@@H](CS(=O)(=O)C1CC1)N1C(=O)[C@@H](CC(=O)O)O[C@H](c2cccc(Cl)c2)[C@H]1c1ccc(Cl)cc1 (single isomer, unassigned) [Example 213, 2-((2R,5R,6R)-6-(3-chlorophenyl)-5-(4-chlorophenyl)-4-((S)-1-(cyclopropylsulfonyl)butan-2-yl)-3-oxomorpholin-2-yl)acetic acid or 2-((2S,5R,6R)-6-(3-chlorophenyl)-5-(4-chlorophenyl)-4-((S)-1-(cyclopropylsulfonyl)butan-2-yl)-3-oxomorpholin-2-yl)acetic acid]	5 nM
CC[C@@H](CN(c1ccccc1F)S(=O)(=O)C1CC1)N1C(=O)[C@@H](CC(=O)O)O[C@H](c2cccc(Cl)c2)[C@H]1c1ccc(Cl)s1 (single isomer, unassigned) [Example 216, 2-((2R,5S,6R)-6-(3-chlorophenyl)-5-(5-chlorothiophen-2-yl)-4-((S)-1-(N-(2-fluorophenyl)cyclopropanesulfonamido)butan-2-yl)-3-oxomorpholin-2-yl)acetic acid or 2-((2S,5S,6R)-6-(3-chlorophenyl)-5-(5-chlorothiophen-2-yl)-4-((S)-1-(N-(2-fluorophenyl)cyclopropanesulfonamido)butan-2-yl)-3-oxomorpholin-2-yl)acetic acid]	< 1 nM
CC[C@@H](CN(c1ccccc1F)S(=O)(=O)C1CC1)N1C(=O)[C@@H](CC(=O)O)O[C@H](c2cccc(Cl)c2)[C@H]1c1ccc(Cl)s1 (single isomer, unassigned) [Example 217, 2-((2R,5S,6R)-6-(3-chlorophenyl)-5-(5-chlorothiophen-2-yl)-4-((S)-1-(N-(2-fluorophenyl)cyclopropanesulfonamido)butan-2-yl)-3-oxomorpholin-2-yl)acetic acid or 2-((2S,5S,6R)-6-(3-chlorophenyl)-5-(5-chlorothiophen-2-yl)-4-((S)-1-(N-(2-fluorophenyl)cyclopropanesulfonamido)butan-2-yl)-3-oxomorpholin-2-yl)acetic acid]	< 1 nM
CC[C@@H](CS(=O)(=O)C(C)(C)C)N1C(=O)[C@@H](CC(=O)O)O[C@H](c2cccc(Cl)c2)[C@H]1c1ccc(Cl)s1 (single isomer, unassigned) [Example 218, 2-((2R,5S,6R)-4-((S)-1-(tert-butylsulfonyl)butan-2-yl)-6-(3-chlorophenyl)-5-(5-chlorothiophen-2-yl)-3-oxomorpholin-2-yl)acetic acid or 2-((2S,5S,6R)-4-((S)-1-(tert-butylsulfonyl)butan-2-yl)-6-(3-chlorophenyl)-5-(5-chlorothiophen-2-yl)-3-oxomorpholin-2-yl)acetic acid]	1 nM
CC[C@@H](CS(=O)(=O)C(C)(C)C)N1C(=O)[C@@H](CC(=O)O)O[C@H](c2cccc(Cl)c2)[C@H]1c1ccc(Cl)s1 (single isomer, unassigned) [Example 219, 2-((2R,5S,6R)-4-((S)-1-(tert-butylsulfonyl)butan-2-yl)-6-(3-chlorophenyl)-5-(5-chlorothiophen-2-yl)-3-oxomorpholin-2-yl)acetic acid or 2-((2S,5S,6R)-4-((S)-1-(tert-butylsulfonyl)butan-2-yl)-6-(3-chlorophenyl)-5-(5-chlorothiophen-2-yl)-3-oxomorpholin-2-yl)acetic acid]	1 nM
CC[C@@H](CCS(=O)(=O)C(C)(C)C)N1C(=O)[C@@H](CC(=O)O)O[C@H](c2cccc(Cl)c2)[C@H]1c1ccc(Cl)cc1 (single isomer, unassigned) [Example 220, 2-((2R,5R,6R)-4-((S)-1-(tert-butylsulfonyl)pentan-3-yl)-6-(3-chlorophenyl)-5-(4-chlorophenyl)-3-oxomorpholin-2-yl)acetic acid or 2-((2S,5R,6R)-4-((S)-1-(tert-butylsulfonyl)pentan-3-yl)-6-(3-chlorophenyl)-5-(4-chlorophenyl)-3-oxomorpholin-2-yl)acetic acid]	9 nM
CC[C@@H](CCS(=O)(=O)C(C)(C)C)N1C(=O)[C@@H](CC(=O)O)O[C@H](c2cccc(Cl)c2)[C@H]1c1ccc(Cl)cc1 (single isomer, unassigned) [Example 221, 2-((2R,5R,6R)-4-((S)-1-(tert-butylsulfonyl)pentan-3-yl)-6-(3-chlorophenyl)-5-(4-chlorophenyl)-3-oxomorpholin-2-yl)acetic acid or 2-((2S,5R,6R)-4-((S)-1-(tert-butylsulfonyl)pentan-3-yl)-6-(3-chlorophenyl)-5-(4-chlorophenyl)-3-oxomorpholin-2-yl)acetic acid]	12 nM
C[C@@H](CS(=O)(=O)C(C)(C)C)N1C(=O)[C@@H](CC(N)=O)O[C@H](c2cccc(Cl)c2)[C@H]1c1ccc(Cl)cc1 (single isomer, unassigned) [Example 225, 2-((2R,5R,6R)-4-((S)-1-(tert-butylsulfonyl)propan-2-yl)-6-(3-chlorophenyl)-5-(4-chlorophenyl)-3-oxomorpholin-2-yl)acetamide or 2-((2S,5R,6R)-4-((S)-1-(tert-butylsulfonyl)propan-2-yl)-6-(3-chlorophenyl)-5-(4-chlorophenyl)-3-oxomorpholin-2-yl)acetamide]	6 nM
C[C@@H](CS(=O)(=O)C(C)(C)C)N1C(=O)[C@H](CC(N)=O)O[C@H](c2cccc(Cl)c2)[C@H]1c1ccc(Cl)cc1 (single isomer, unassigned) [Example 226, 2-((2S,5R,6R)-4-((S)-1-(tert-butylsulfonyl)propan-2-yl)-6-(3-chlorophenyl)-5-(4-chlorophenyl)-3-oxomorpholin-2-yl)acetamide or 2-((2R,5R,6R)-4-((S)-1-(tert-butylsulfonyl)propan-2-yl)-6-(3-chlorophenyl)-5-(4-chlorophenyl)-3-oxomorpholin-2-yl)acetamide]	11 nM
CNC(=O)C[C@@H]1O[C@H](c2cccc(Cl)c2)[C@@H](c2ccc(Cl)cc2)N([C@@H](C)CS(=O)(=O)C(C)(C)C)C1=O (single isomer, unassigned) [Example 227, 2-((2S,5R,6R)-4-((S)-1-(tert-butylsulfonyl)propan-2-yl)-6-(3-chlorophenyl)-5-(4-chlorophenyl)-3-oxomorpholin-2-yl)-N-methylacetamide or 2-((2R,5R,6R)-4-((S)-1-(tert-butylsulfonyl)propan-2-yl)-6-(3-chlorophenyl)-5-(4-chlorophenyl)-3-oxomorpholin-2-yl)-N-methylacetamide]	11 nM
CNC(=O)C[C@H]1O[C@H](c2cccc(Cl)c2)[C@@H](c2ccc(Cl)cc2)N([C@@H](C)CS(=O)(=O)C(C)(C)C)C1=O (single isomer, unassigned) [Example 228, 2-((2R,5R,6R)-4-((S)-1-(tert-butylsulfonyl)propan-2-yl)-6-(3-chlorophenyl)-5-(4-chlorophenyl)-3-oxomorpholin-2-yl)-N-methylacetamide or 2-((2S,5R,6R)-4-((S)-1-(tert-butylsulfonyl)propan-2-yl)-6-(3-chlorophenyl)-5-(4-chlorophenyl)-3-oxomorpholin-2-yl)-N-methylacetamide]	14 nM
